From patent US10227331B2 (priority 2015, dated 2019)

Experiments:
[1] = tested on: P. aeruginosa expressing IMP-1, efflux+ (MB9798); type: cell-based, Pseudomonas aeruginosa; details: for P. aeruginosa expressing IMP-1, efflux+ (MB9798) MITC95: imipenem at 2 μg/mL, in the presence of a class A, C, D serine β-lactamase inhibitor closely related to relebactam; for Efflux ratio: ratio MITC95 PA_9798/MITC95 PA_9799
From the text: (§1) The strain background is Pseudomonas aeruginosa PAO1.

NDM-1 = NDM-1 (Klebsiella pneumoniae, UniProt C7C422); assay: biochemical; type: biochemical; details: CCF2-FA substrate, 2 hours at 25° C; read-out: NDM-1 IC50
Procedure: (§2) Enzyme Activity: Determination of IC50
(§3) The Class B enzyme activities were measured in the presence of the test inhibitor in a fluorescence assay against a commercially available substrate consisting of a cephalosporin core linking 7-hydroxycoumarin to fluorescein (CCF2-FA). […] In a 384-well microplate, the test inhibitor was incubated with the metallo-β-lactamase enzyme and the substrate for 2 hours at 25° C. […] The IC50 value was determined from semi-logarithmic plots of enzyme inhibition versus inhibitor concentration, with a curve generated using a 4-parameter fit.

IMP-1 = IMP-1 (Serratia marcescens, UniProt P52699); assay: biochemical; type: biochemical; details: CCF2-FA substrate, 2 hours at 25° C; read-out: IMP-1 IC50
Procedure: as §2, §3

[2] = tested on: P. aeruginosa expressing IMP-1, efflux− (MB9799); assay: Efflux: concentration of MBL inhibitor which restores susceptibility to imipenem; type: cell-based, Pseudomonas aeruginosa; details: imipenem at 2 μg/mL, in the presence of a class A, C, D serine β-lactamase inhibitor closely related to relebactam
From the text: as §1

VIM-1 = VIM-1 (Pseudomonas aeruginosa (strain ATCC 15692 / DSM 22644 / CIP 104116 / JCM 14847 / LMG 12228 / 1C / PRS 101 / PAO1), UniProt A0A0F7KYQ8); assay: biochemical; details: CCF2-FA substrate, 2 hours at 25° C
Procedure: as §2, §3

[3] = tested on: Serratia marcescens expressing IMP-1 (CL5741); type: cell-based; details: with imipenem 1 μg/ml, 95% inhibition of bacterial growth; for Serratia marcescens MITC95: IMP-1 (CL5741)
Procedure: (§4) Antibiotic Potentiation Activity: Determination of Synergistic Concentration
(§5) The bacterial strains tested included the clinical strains Escherichia coli expressing NDM-1 (CLB30005, CLB30016), Serratia marcescens expressing IMP-1 (CL5741), and Klebsiella pneumoniae expressing VIM-1 (IHMA599644). Inhibitor activity was measured in the presence and absence of imipenem in a 384-well microplate.
(§6) The clinical strains CLB30016, CL5741 and IHMA599644 were grown on trypticase soy agar containing 5% sheep's blood. The bacteria on agar plates were incubated at 35° C. with humidity overnight. The following day, individual colonies from each clinical strain were picked and resuspended in 5 ml saline to attain an OD600 of […], for CLB30016, CL5741 and IHMA599644, respectively. These were further diluted 1:100 into 1.1×CAMHB and used to inoculate the test wells as described below.
(§7) Imipenem in 10 mM 3-(N-morpholino)propanesulfonic acid (MOPS, pH 7) was stored in single use aliquots at −80° C. […] On the day of the assay, 4 μl of antibiotic was added to 45 ul of bacteria followed by 1 μl of test compound and mixed by pipetting and with an orbital shaker. The concentration of antibiotic used in the assay was 1 μg/ml. Microplates were covered and incubated at 35° C. for 22 hours to 24 hours. At the end of the incubation, absorbance was determined using a spectrophotometer.
(§8) For example, in general, the compounds of Examples 1-379 were determined to restore susceptibility to imipenem for one or more of the test organisms at concentrations of 100 μM or less.

[4] = tested on: Escherichia coli expressing NDM-1 (CLB30005, CLB30016); type: cell-based; details: with imipenem 1 μg/ml, 95% inhibition of bacterial growth; for Escherichia coli MITC95: NDM-1 (CLB30016)
Procedure: as §4, §5, §6, §7, §8

[5] = tested on: Klebsiella pneumoniae expressing VIM-1 (IHMA599644); type: cell-based; details: with imipenem 1 μg/ml, 95% inhibition of bacterial growth; for Klebsiella pneumoniae MITC95: VIM-1 (IHMA599644)
Procedure: as §4, §5, §6, §7, §8

NDM-1, sequence (C7C422 whole entry, looked up, species assumed): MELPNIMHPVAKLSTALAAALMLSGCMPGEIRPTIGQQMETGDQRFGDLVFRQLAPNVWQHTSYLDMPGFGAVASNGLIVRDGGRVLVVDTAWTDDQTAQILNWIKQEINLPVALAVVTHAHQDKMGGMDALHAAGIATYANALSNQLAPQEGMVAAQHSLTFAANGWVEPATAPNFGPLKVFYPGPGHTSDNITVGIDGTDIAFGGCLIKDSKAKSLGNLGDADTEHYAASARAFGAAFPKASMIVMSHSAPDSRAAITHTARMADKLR
IMP-1, sequence (P52699 whole entry, looked up, species assumed): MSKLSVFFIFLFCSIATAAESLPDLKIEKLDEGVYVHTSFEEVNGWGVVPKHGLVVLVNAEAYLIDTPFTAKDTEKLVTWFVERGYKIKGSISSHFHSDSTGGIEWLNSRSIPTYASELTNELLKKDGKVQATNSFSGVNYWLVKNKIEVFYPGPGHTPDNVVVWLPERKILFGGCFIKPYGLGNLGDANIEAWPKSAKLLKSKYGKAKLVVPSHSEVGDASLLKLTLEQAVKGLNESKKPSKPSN

SMILES	P. aeruginosa expressing IMP-1, efflux+ (MB9798) MITC95 [1] [µM]	Efflux ratio [1]	IC50 (NDM-1) [nM]	IC50 (IMP-1) [nM]	P. aeruginosa expressing IMP-1, efflux− (MB9799) MITC95 [2] [µM]	IC50 (VIM-1) [nM]	Serratia marcescens expressing IMP-1 (CL5741) MITC95 [3] [µM]	Escherichia coli expressing NDM-1 (CLB30016) MITC95 [4] [µM]	Klebsiella pneumoniae expressing VIM-1 (IHMA599644) MITC95 [5] [µM]	Serratia marcescens MITC95 [3] [µM]	Escherichia coli MITC95 [4] [µM]	Klebsiella pneumoniae MITC95 [5] [µM]
N#CC1(c2ccc(-c3ccc(S(=O)(=O)CCN)c(S(N)(=O)=O)c3-c3nnn[nH]3)cn2)CNC1.O=C(O)C(F)(F)F [Example 132, 2-((4-(6-(3-cyanoazetidin-3-yl)pyridin-3-yl)-2-sulfamoyl-3-(1H-tetrazol-5-yl)phenyl)sulfonyl)ethanaminium 2,2,2-trifluoroacetate]	6.25	4.00	3.5	1.49	1.563	1.55	1.563	0.7813	3.125	–	–	–
NS(=O)(=O)c1c(SC2CNC2)ccc(-c2ccc(C3CCNCC3)cc2)c1-c1nn[nH]n1 [Example 4, 4-(Azetidin-3-ylthio)-4′-(piperidin-4-yl)-2-(2H-tetrazol-5-yl)-[1,1′-biphenyl]-3-sulfonamide]	1.563	4.00	11.5	15.1	0.3906	53.5	1.563	0.7813	3.125	–	–	–
N=C(N)c1nc2c(-c3ccc(S(=O)(=O)C4CNC4)c(S(N)(=O)=O)c3-c3nnn[nH]3)cccc2s1 [Example 62, 4-(4-(Azetidin-3-ylsulfonyl)-3-sulfamoyl-2-(1H-tetrazol-5-yl)phenyl)benzo[d]thiazole-2-carboximidamide]	1.563	2.00	0.345	2.63	0.7813	0.396	1.563	0.3906	1.563	–	–	–
NCCS(=O)(=O)c1ccc(-c2ccc3c(=O)nc[nH]c3c2)c(-c2nnn[nH]2)c1S(N)(=O)=O.O=C(O)C(F)(F)F [Example 165, 2-((4-(4-oxo-1,4-dihydroquinazolin-7-yl)-2-sulfamoyl-3-(1H-tetrazol-5-yl)phenyl)sulfonyl)ethanaminium 2,2,2-trifluoroacetate]	12.5	4.00	2.48	1.6	3.125	0.571	3.125	3.125	6.25	–	–	–
NC[C@H](O)CS(=O)(=O)c1ccc(-c2cccc3sc(N)nc23)c(-c2nn[nH]n2)c1S(N)(=O)=O [Example 281, 6-((S)-3-amino-2-hydroxypropylsulfonyl)-3-(2-aminobenzo[d]thiazol-4-yl)-2-(2H-tetrazol-5-yl)benzenesulfonamide]	0.3906	–	0.0561	–	0.7813	0.134	–	–	–	0.7813	0.7813	1.563
NC(=O)N1CC(S(=O)(=O)c2ccc(-c3ccc(NS(=O)(=O)C4CC4)cc3)c(-c3nn[nH]n3)c2S(N)(=O)=O)C1 [Example 246, 3-((4′-(cyclopropanesulfonamido)-3-sulfamoyl-2-(2H-tetrazol-5-yl)-[1,1′-biphenyl]-4-yl)sulfonyl)azetidine-1-carboxamide]	12.5	–	–	0.103	3.125	0.139	–	–	–	12.5	50	25
Nc1nc2cc(-c3ccc([S+]([O-])C4CNC4)c(S(N)(=O)=O)c3-c3nn[nH]n3)ccc2[nH]1 (stereo not drawn) [Example 11, 3-(2-amino-1H-benzo[d]imidazol-5-yl)-6-(azetidin-3-ylsulfinyl)-2-(2H-tetrazol-5-yl)benzenesulfonamide]	3.125	8.00	–	–	0.3906	1.86	0.7813	0.3906	0.3906	–	–	–
NCCS(=O)(=O)c1ccc(-c2ccnc3nc(N)[nH]c23)c(-c2nnn[nH]2)c1S(N)(=O)=O [Example 303, 3-(2-amino-1H-imidazo[4,5-b]pyridin-7-yl)-6-((2-aminoethyl)sulfonyl)-2-(1H-tetrazol-5-yl)benzenesulfonamide]	100	32.00	–	–	3.125	11.3	–	–	–	6.25	3.125	3.125
C[C@@H](CN)S(=O)(=O)c1ccc(-c2cccc3nc(N)[nH]c23)c(-c2nn[nH]n2)c1S(N)(=O)=O [Example 278, 3-(2-amino-3H-benzo[d]imidazol-4-yl)-6-((S)-1-aminopropan-2-ylsulfonyl)-2-(2H-tetrazol-5-yl)benzenesulfonamide]	1.563	2.00	–	–	0.7813	0.365	–	–	–	0.7813	0.3906	1.563
NS(=O)(=O)c1c(S(=O)(=O)C2CNC2)ccc(-c2cccc3c2C(=O)NS3(=O)=O)c1-c1nn[nH]n1 [Example 249, 6-(Azetidin-3-ylsulfonyl)-3-(1,1-dioxido-3-oxo-2,3-dihydrobenzo[d]isothiazol-4-yl)-2-(2H-tetrazol-5-yl)benzenesulfonamide]	12.5	2.00	–	–	6.25	0.322	–	–	–	6.25	6.25	25
